Measurements as given in patent US20260297105A1, “RAF-MEK PROTEIN COMPLEX MODULATORS AND METHODS OF USE THEREOF” (GANDEEVA THERAPEUTICS, INC., priority 2023, published 2026).
Like-named read-outs stand apart in the source and are kept apart here.

Tests used:
MEK1 = molecular target: T1, MEK1 (Homo sapiens, UniProt Q02750); experiment: MEK1 kinase cascade assay (ADP-Glo), inhibition of MEK1 kinase activity; type: biochemical; details: 25 nM BRAF, 6.25 nM MEK1, 0.5 μM ERK, 1 mM ATP; 20 min preincubation, 1 hr at 25° C.; read-out: BRAF ADP Glo kinase assay V3 (IC50)
T1 construct: purchased SignalChem M02-14H
T1 sequence (Q02750 whole entry): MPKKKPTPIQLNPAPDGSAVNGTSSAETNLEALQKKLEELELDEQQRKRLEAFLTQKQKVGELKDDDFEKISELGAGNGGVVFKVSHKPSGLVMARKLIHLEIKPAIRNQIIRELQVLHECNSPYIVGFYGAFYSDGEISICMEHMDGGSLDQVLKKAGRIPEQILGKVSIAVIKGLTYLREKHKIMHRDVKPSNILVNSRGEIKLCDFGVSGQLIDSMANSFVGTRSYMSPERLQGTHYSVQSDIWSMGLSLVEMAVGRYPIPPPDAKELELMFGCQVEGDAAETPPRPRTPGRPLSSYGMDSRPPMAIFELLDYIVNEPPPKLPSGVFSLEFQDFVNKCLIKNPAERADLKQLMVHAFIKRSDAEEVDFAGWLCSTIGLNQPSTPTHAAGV
T1 sequence (P15056 445-723 partner limits assumed): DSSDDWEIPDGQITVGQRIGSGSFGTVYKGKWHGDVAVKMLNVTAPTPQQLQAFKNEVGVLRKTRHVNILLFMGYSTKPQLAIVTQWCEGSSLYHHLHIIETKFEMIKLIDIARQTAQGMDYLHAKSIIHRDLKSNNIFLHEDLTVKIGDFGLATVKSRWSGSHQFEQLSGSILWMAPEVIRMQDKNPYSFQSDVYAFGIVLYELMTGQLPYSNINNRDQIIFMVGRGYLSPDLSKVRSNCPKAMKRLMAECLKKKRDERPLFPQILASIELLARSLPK
Source text: (§1) Protein expression and purification: BRAF (445-723) with N-term His-tag and C-term StrepII tag was expressed using the Expi293 system (ThermoFisher) and purified using Strep-Tactin® XT-Superflow (IBA) chromatography. ERK1 (full-length) with N-term His-tag was expressed in Rosetta DE3 cells (Millipore) and purified using HisTrap HP (Cytiva) and Superdex 200 (Cytiva) column chromatography. Full-length MEK1 for TR-FRET assays with N-term His-tag was expressed in BL21DE3 cells (ThermoFisher) and purified using HisTrap HP (Cytiva) and Superdex 200 (Cytiva) column chromatography.
Efficacy of exemplary compounds in inhibition of MEK1 kinase activity: The effect of compound MEK1 inhibition was evaluated using an ADP detection system for kinases, such as the ADP-Glo assay (Promega). The MEK1 kinase cascade assay consisted of 9 μL reaction volumes in 384-well white, opaque Optiplates (PerkinElmer). Compounds were prepared from DMSO stocks in assay buffer (10 mM HEPES pH 7.5, 5 mM MgCl2, 2 mM CHAPS, and 1 mM DTT) and preincubated with 25 nM BRAF for 20 mins at 25° C. prior to addition of 6.25 nM MEK1/0.5 μM ERK/1 mM ATP premix to initiate the kinase reaction. Both BRAF and ERK1 were produced in-house, and MEK1 was purchased from SignalChem (M02-14H). DMSO was kept constant at a final concentration of 1%. After a 1 hr incubation at 25° C., conversion of ATP to ADP was detected using ADP-Glo™ reagents according to the manufacturer's protocol. Luminescence was measured using a CLARIOstar microplate reader (BMG). Percent (%) Inhibition was calculated by normalizing to DMSO control (max) and 1 μM Trametinib (min). % inhibition as a function of compound concentration from 2 replicate wells was fit with a 4-parameter logistic curve equation using GraphPad Prism or CDD Vault to derive IC50 values.
(§2) In this table, for the BRAF ADP Glo kinase assay, “A” indicates IC50 of less than 5 nM; “B” indicates IC50 of between 5 nM to 50 nM; and “C” indicates IC50 of between 50 nM to 500 nM. “D” indicates IC50 of greater than 500 nM. For the BRAF-MEK TR-FRET assay, “A” indicates EC50 of less than 50 nM; “B” indicates EC50 of between 50 nM to 200 nM; and “C” indicates EC50 of between 200 nM to 1 μM. “D′” indicates EC50 of greater than 1 μM. For the AlphaLisa P-ERK assay, “A” indicates IC50 of less than 1 nM; “B” indicates IC50 of between 1 nM to 10 nM; and “C” indicates IC50 of between 10 nM to 100 nM. “D” indicates IC50 of greater than 100 nM. For the cell viability assay, “A” indicates IC50 of less than 1 nM; “B” indicates IC50 of between 1 nM to 10 nM; and “C” indicates IC50 of between 10 nM to 100 nM. “D” indicates IC50 of greater than 100 nM.

BRAF-MEK1 = experiment: BRAF-MEK TR-FRET assay, stabilization of MEK1 and BRAF interaction; type: binding; details: 4 nM BRAF, 10 nM MEK, 100 μM ATP, 1 hr at 25° C., read-out: BRAF-MEK TR-FRET Assay (EC50, fold stabilization)
Source text: as §1
Efficacy of exemplary compounds in stabilization of MEK1 and BRAF interaction: Compound stabilization of BRAF-MEK interaction was evaluated using TR-FRET (Time Resolved Fluorescence Energy Transfer). The FRET assay consisted of His-tagged MEK1 (produced in-house), GST-tagged BRAF (SignalChem, B08-11G), Anti His-Tb Cryptate donor, and Anti GST-XL665 acceptor fluorophores (PerkinElmer) to generate FRET signal upon BRAF-MEK1 binding. Compounds were prepared from DMSO stocks in assay buffer (50 mM Tris pH 7.5, 150 mM NaCl, 1 mM DTT, 0.05% Tween-20, 5 mM MgCl2, and 100 μM ATP) and incubated with 4 nM BRAF and 10 nM MEK for 1 hr at 25° C. 1 ng Anti His-Tb Cryptate/20 ng Anti GST-XL665 premix was then added and incubated for 1 hr at 25° C. TR-FRET was measured using Cytation5 microplate reader (Agilent) using Ex/Em=340/620 nm and Ex/Em=340/665 nm to determine the FRET ratio. Fold stabilization was calculated as FRET signal of treated well/DMSO control. Fold stabilization as a function of compound concentration from 2 replicate wells was fit with a 4-parameter logistic curve equation using GraphPad Prism or CDD Vault to derive EC50 values.
as §2

Structure (SMILES)	IC50 (MEK1) [nM]	EC50 (BRAF-MEK1) [nM]	EC50 (BRAF-MEK1; 60 min) [nM]
CNS(=O)(=O)Nc1nccc(CN2C(=O)Oc3cc(Oc4cccnn4)cc(F)c3C23CCC3)c1F [Compound 171, 5-fluoro-3-{[3-fluoro-2-(methylaminosulfonylamino)-4-pyridyl]methyl}-7-(3-pyridazinyloxy)-2H,3H-spiro[1,3-benzoxazine-4,1′-cyclobutan]-2-one]	< 5	< 50	–
CNS(=O)(=O)Nc1nccc(CN2C(=O)Oc3cc(Oc4cccnn4)cc(F)c3C23COC3)c1F [Compound 178, 5-fluoro-3-{[3-fluoro-2-(methylaminosulfonylamino)-4-pyridyl]methyl}-7-(3-pyridazinyloxy)-2H, 3H-spiro[1,3-benzoxazine-4,3′-oxetan]-2-one]	5 to 50	200 to 1000	–
CNS(=O)(=O)Nc1nccc(CN2C(=O)Oc3cc(Oc4cccnn4)ccc3C23COC3)c1F [Compound 24, 3-({3-fluoro-2-[(methylsulfamoyl)amino]pyridin-4-yl}methyl)-7-(pyridazin-3-yloxy)-2,3-dihydrospiro[1,3-benzoxazine-4,3′-oxetan]-2-one]	5 to 50	50 to 200	–
CNS(=O)(=O)Nc1cccc(CN2C(=O)Oc3cc(Oc4ncco4)c(F)cc3C2C)c1F (single isomer, unassigned) [Compound 85, (R)-6-fluoro-3-({2-fluoro-3-(methylsulfamoyl)amino]phenyl}methyl)-4-methyl-7-(1,3-oxazol-2-yloxy)-3,4-dihydro-2H-1,3-benzoxazin-2-one or (S)-6-fluoro-3-({2-fluoro-3-(methylsulfamoyl)amino]phenyl}methyl)-4-methyl-7-(1,3-oxazol-2-yloxy)-3,4-dihydro-2H-1,3-benzoxazin-2-one]	5 to 50	200 to 1000	–
CNS(=O)(=O)Nc1nccc(CN2C(=O)Oc3cc(Oc4cccnn4)ccc3[C@H]2C)c1F (single isomer, unassigned) [Compound 23]	5 to 50	< 50	–
CNS(=O)(=O)Nc1cccc(CN2Cc3cc(F)c(OC(=O)N(C)C)cc3OC2=O)c1F [Compound 120, 6-fluoro-3-(2-fluoro-3-((N-methylsulfamoyl)amino)benzyl)-2-oxo-3,4-dihydro-2H-benzo[e][1,3]oxazin-7-yl dimethylcarbamate]	< 5	50 to 200	–
[2H]C1([2H])c2ccc(Oc3nccnn3)cc2OC(=O)N1Cc1cccc(NS(=O)(=O)NC)c1F [Compound 31, 3-({2-fluoro-3-[(methylsulfamoyl)amino]phenyl}methyl)-7-(1,2,4-triazin-3-yloxy)-3,4-dihydro(4,4-^2 H2)-2H-1,3-benzoxazin-2-one]	5 to 50	< 50	–
CNS(=O)(=O)Nc1nccc(CN2C(=O)Oc3c(ccc(Oc4nccnn4)c3F)C23CCC3)c1F [Compound 177, 8-fluoro-3-{[3-fluoro-2-(methylaminosulfonylamino)-4-pyridyl]methyl}-7-(1,2,4-triazin-3-yloxy)-2H,3H-spiro[1,3-benzoxazine-4,1′-cyclobutan]-2-one]	< 5	< 50	–
CNS(=O)(=O)Nc1cccc(CN2C(=O)Oc3cc(Oc4cccnn4)cnc3[C@H]2C)c1F (stereo in doubt) [Compound 175]	5 to 50	50 to 200	–
CNS(=O)(=O)Nc1cccc(CN2C(=O)Oc3cc(Oc4ncco4)cc(F)c3[C@@H]2C)c1F (single isomer, unassigned) [Compound 86, (S)-5-fluoro-3-({2-fluoro-3-(methylsulfamoyl)amino]phenyl}methyl)-4-methyl-7-(1,3-oxazol-2-yloxy)-3,4-dihydro-2H-1,3-benzoxazin-2-one or (R)-5-fluoro-3-({2-fluoro-3-(methylsulfamoyl)amino]phenyl}methyl)-4-methyl-7-(1,3-oxazol-2-yloxy)-3,4-dihydro-2H-1,3-benzoxazin-2-one]	5 to 50	200 to 1000	–
C[C@H]1c2c(F)cc(Oc3cccnn3)cc2OC(=O)N1Cc1cccc(NS(=O)(=O)C2CC2)c1F (single isomer, unassigned) [Compound 55]	5 to 50	200 to 1000	–
CNS(=O)(=O)Nc1cccc(CN2C(=O)Oc3cc(OC(=O)N(C)C)ccc3C23CN(C)C3)c1F [Compound 48, 3′-(2-fluoro-3-((N-methylsulfamoyl)amino)benzyl)-1-methyl-2′-oxo-2′,3′-dihydrospiro[azetidine-3,4′-benzo[e][1,3]oxazin]-7′-yl dimethylcarbamate]	5 to 50	200 to 1000	–
CN(C)S(=O)(=O)Nc1cccc(CN2Cc3ccc(Oc4cccnn4)cc3OC2=O)c1F [Compound 37, 3-{[3-(dimethylaminosulfonylamino)-2-fluorophenyl]methyl}-7-(3-pyridazinyloxy)-3,4-dihydro-2H-1,3-benzoxazin-2-one]	5 to 50	50 to 200	–
CNS(=O)(=O)Nc1cccc(CN2Cc3ccc(Oc4ncco4)c(F)c3OC2=O)c1F [Compound 91, 8-fluoro-3-{[2-fluoro-3-(methylaminosulfonylamino)phenyl]methyl}-7-(1,3-oxazol-2-yloxy)-3,4-dihydro-2H-1,3-benzoxazin-2-one]	< 5	200 to 1000	–
CNS(=O)(=O)Nc1nccc(CN2C(=O)Oc3cc(Oc4ncco4)c(F)cc3C2C)c1F (single isomer, unassigned) [Compound 186, 6-fluoro-3-{[3-fluoro-2-(methylaminosulfonylamino)-4-pyridyl]methyl}-4-methyl-7-(1,3-oxazol-2-yloxy)-3,4-dihydro-2H-1,3-benzoxazin-2-one]	50 to 500	–	200 to 1000
CNS(=O)(=O)Nc1cccc(CN2Cc3cc(F)c(Oc4ncccn4)cc3OC2=O)c1F [Compound 83, 6-fluoro-3-{[2-fluoro-3-(methylaminosulfonylamino)phenyl]methyl}-7-(2-pyrimidinyloxy)-3,4-dihydro-2H-1,3-benzoxazin-2-one]	5 to 50	200 to 1000	–
CN(C)S(=O)(=O)Nc1nccc(CN2C(=O)Oc3cc(Oc4ncco4)ccc3C23CCC3)c1F [Compound 179, 3-{[2-(dimethylaminosulfonylamino)-3-fluoro-4-pyridyl]methyl}-7-(1,3-oxazol-2-yloxy)-2H,3H-spiro[1,3-benzoxazine-4,1′-cyclobutan]-2-one]	5 to 50	200 to 1000	–
CNS(=O)(=O)Nc1cccc(CN2C(=O)Oc3cc(OC(=O)N(C)C)ccc3C23CNC3)c1F [Compound 49]	5 to 50	200 to 1000	–
